According to US5039792A, “Allatostatins which inhibit insect juvenile hormone biosynthesis” (Oregon State University, priority 1989, dated 1991):
Ends that are not written are not given here.

System: juvenile hormone III synthesis by corpora allata
Experiment: in vitro radiochemical assay for inhibition of juvenile hormone III synthesis and release by corpora allata
Assay type: cell-based, Diploptera punctata
Details: for IC50: inhibition of juvenile hormone synthesis and release, two hour in vitro radiochemical assay, corpora allata from ten day old pregnant females, read-out: Bioactivity as I.C.50 (Day 10 Donors)
Protocol: This assay for inhibition of JH synthesis is conducted as described by G. E. Pratt and J. R. Finney, in Crop Protection Agents: their biological evaluation, N. R. McFarlane, Ed. (Academic Press, New York, 1976)) except it is modified by the use of rapid partition instead of thin layer chromatography to isolate the newly synthesized JH and also modified by a reduction of incubation time to two hours.
Biological activities are determined for all RP18.cndot.HPLC fractions. […] Juvenile hormone III is synthesized de novo from acetyl-CoA through the classical isoprenoid pathway to farnesyl pyrophosphate (D. A. Schooley and F. C. Baker, in Comprehensive Insect Physiology, Biochemistry and Pharmacology, G. A. Kerkut and L. I. Gilbert, Eds. (Pergamon, Oxford, 1985) Vol. 7, pp. 363-389) and the enzymatic conversion of […] to JH can be stimulated in vitro by exogenous 2E,6E […] (Aldrich, Milwaukee, Wis.) which presumably alleviates a limitation in the biosynthetic flux (R. Feyereisen, J. Koener, S. S. Tobe, in Juvenile Hormone Biochemistry, G. E. Pratt and G. T. Brooks, Eds. (Elsevier, Amsterdam, 1981), pp. 81-92). […] The target of this allatostatin is therefore located early in the biosynthetic pathway. Juvenile hormone synthesis is determined at the end of two hours in these assays and bioactivity is measured as the ability of the peptide to inhibit biosynthesis of the JHIII. The peptide yields as determined from sequence analysis correspond to approximately 35 fmole/brain-complex. This is approximately one third the yield of the smaller known allatostatins (see G. E. Pratt et al. Biochem. & Biophys. Res. Commun. 163:1243 (1989) and A. P. Woodhead et al. Prod. Natl. Acad. Sci. 86:5997 (1989).
The inhibition of JH III synthesis and release by corpora allata (CA) from ten day old pregnant females is measured by an in vitro radiochemical assay. The three hour assay for inhibitors of JH synthesis (G. E. Pratt and J. R. Finney, in Crop Protection Agents: their biological evaluation, N. R. McFarlane, Ed. (Academic Press, New York, 1976) pp. 113-132) is modified by the use of rapid partition instead of thin layer chromatography to isolate the newly synthesized JH III (R. Feyereisen and S. S. Tobe, Anal. Biochem. 111: 372 (1981)) and modified by a reduction of incubation time to two hours. In each assay, run in seven replicates, one pair of CA was incubated with 50 μM (methyl-^3 H) methionine and putative inhibitor in 0.1 mL of TC199 containing 2% Ficoll, 0.1% bovine serum albumin and 0.03% bacitracin. The test glands show maximum sensitivity to the allatostatic action of brain extracts. R. Feyereisen and D. E. Farnsworth, Insect Biochem. 17,939 (1987); S. M. Rankin and B. Stay, J. Insec. Physiol. 33, 551 (1987).

IC50 [µM] | Substance | inhibition of JH III biosynthesis in dose-response assays in the presence of farnesol (in the presence of 200 μM farnesol, JH synthesis determined at the end of two hours) | biological activity in the in vitro assay (inhibition of JH synthesis) (in vitro radiochemical assay, corpora allata)
0.0015 | Ac-AYSYVSEYKRLPVYNFGL-NH2 [acetyl-AYSYVSEYKRLPVYNFGL-NH2] | – | –
0.05 | LPVYNFGL-NH2 [LPVYNFGL-NH2] | – | –
0.118 | LRVYNFGL-NH2 [LRVYNFGL-NH2] | – | –
0.03 | Ac-RLPVYNFGL-NH2 [acetyl-RLPVYNFGL-NH2] | – | –
0.27 | RLPVYNFGL-NH2 [RLPVYNFGL-NH2] | – | –
0.0003 | AYSYVSEYKRLPVYNFGL-NH2 [AYSYVSEYKRLPVYNFGL-NH2] | totally ineffective | biologically active
